ChEMBL document CHEMBL1201862, “PubChem BioAssay data set” (2004)
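Step 1: Grow cells in 96-well plates. Step 2: Expose to compound for 48 hours at 5 concentrations. Step 3: Interpolate endpoints linearly; if unreached, use highest concentration. GI50 marks 50% less growth.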 Activity calls are given as the source filed them. Cut-off read from the data, not from the text of the source: active = GI50 up to about 1.1 µM and inactive = higher.

How the values were obtained:
Test in all cases: growth of human tumour cells (NCI), 48 h
HL-60 = tested on: HL-60
NCI/ADR-RES = tested on: NCI/ADR-RES
SK-MEL-28 = tested on: SK-MEL-28
DU-145 = tested on: DU-145
OVCAR-8 = tested on: OVCAR-8
ACHN = tested on: ACHN
786-0 = tested on: 786-0
NCI-H460 = tested on: NCI-H460
Hs-578T = tested on: Hs-578T
CAKI-1 = tested on: CAKI-1
MCF7 = tested on: MCF7
LOX IMVI = tested on: LOX IMVI
UACC-257 = tested on: UACC-257
A549 = tested on: A549
SF-539 = tested on: SF-539
M14 = tested on: M14
SNB-19 = tested on: SNB-19
COLO 205 = tested on: COLO 205
MDA-MB-231 = tested on: MDA-MB-231
SN12C = tested on: SN12C

Measured: GI50

O=c1cn[nH]c(=S)n1/N=C/c1c[nH]c2ccccc12
inactive: HL-60 14.5 µM | NCI/ADR-RES > 100 µM | SK-MEL-28 > 100 µM | DU-145 > 100 µM | OVCAR-8 32.8 µM | ACHN > 100 µM | 786-0 > 100 µM | NCI-H460 > 100 µM | Hs-578T > 100 µM | CAKI-1 > 100 µM | MCF7 45.7 µM | LOX IMVI 30 µM | UACC-257 63 µM | A549 > 100 µM | SF-539 > 100 µM | M14 > 100 µM | SNB-19 > 100 µM | COLO 205 > 100 µM

CC(C)(C)OC(=O)NCC(CNC(=O)OC(C)(C)C)c1nc(C(N)=O)cs1
inactive: HL-60 > 100 µM | NCI/ADR-RES > 100 µM | SK-MEL-28 > 100 µM | OVCAR-8 > 100 µM | ACHN > 100 µM | 786-0 > 100 µM | NCI-H460 > 100 µM | Hs-578T > 100 µM | CAKI-1 > 100 µM | MCF7 > 100 µM | MDA-MB-231 > 100 µM | LOX IMVI > 100 µM | UACC-257 > 100 µM | A549 > 100 µM | SF-539 > 100 µM | M14 > 100 µM | SNB-19 > 100 µM | COLO 205 > 100 µM | SN12C > 100 µM

Cc1ccccc1NC(=O)/C(C#N)=N\Nc1[nH]cnc1C(N)=O
inactive: HL-60 > 100 µM | NCI/ADR-RES 2.45 µM | SK-MEL-28 28.7 µM | DU-145 2.79 µM | OVCAR-8 1.51 µM | ACHN 5.28 µM | 786-0 19.3 µM | NCI-H460 9.33 µM | Hs-578T 24.3 µM | CAKI-1 2.59 µM | MCF7 21.6 µM | MDA-MB-231 7.46 µM | UACC-257 15.2 µM | A549 > 100 µM | M14 2.66 µM | SNB-19 > 100 µM | COLO 205 21.9 µM | SN12C 5 µM

Cc1ccc(S(=O)(=O)OCCC2CN(C(=O)OCc3ccccc3)C(C)(C)O2)cc1 (stereo unspecified)
inactive: HL-60 5.24 µM | NCI/ADR-RES 2.4 µM | SK-MEL-28 11.4 µM | DU-145 57.8 µM | OVCAR-8 4.2 µM | ACHN 12.9 µM | 786-0 11.6 µM | NCI-H460 3.47 µM | CAKI-1 60.1 µM | MCF7 7.83 µM | MDA-MB-231 > 100 µM | LOX IMVI 10.8 µM | UACC-257 7.41 µM | A549 9.59 µM | SF-539 12.5 µM | M14 7.38 µM | SNB-19 3.83 µM | COLO 205 7.38 µM | SN12C > 100 µM

O=C(O)/C=C\C(=O)Nc1ccccn1
inactive: HL-60 > 100 µM | NCI/ADR-RES > 100 µM | SK-MEL-28 > 100 µM | DU-145 > 100 µM | OVCAR-8 > 100 µM | ACHN > 100 µM | 786-0 > 100 µM | NCI-H460 > 100 µM | Hs-578T > 100 µM | CAKI-1 > 100 µM | MDA-MB-231 > 100 µM | LOX IMVI > 100 µM | UACC-257 > 100 µM | A549 > 100 µM | SF-539 > 100 µM | M14 > 100 µM | SNB-19 > 100 µM | COLO 205 > 100 µM | SN12C > 100 µM

COC(=O)[C@]12CCC(=O)N1[C@H](C(=O)O)Cc1c2[nH]c2ccccc12
inactive: NCI/ADR-RES > 100 µM | SK-MEL-28 > 100 µM | DU-145 > 100 µM | OVCAR-8 > 100 µM | ACHN > 100 µM | 786-0 > 100 µM | NCI-H460 > 100 µM | Hs-578T > 100 µM | CAKI-1 > 100 µM | MCF7 > 100 µM | MDA-MB-231 > 100 µM | LOX IMVI > 100 µM | UACC-257 > 100 µM | A549 > 100 µM | SF-539 > 100 µM | M14 > 100 µM | SNB-19 > 100 µM | COLO 205 > 100 µM | SN12C > 100 µM

CCOC(=O)C(O)(NC(=O)Nc1ccc(F)cc1)C(F)(F)F (stereo unspecified)
inactive: HL-60 > 100 µM | NCI/ADR-RES > 100 µM | SK-MEL-28 > 100 µM | OVCAR-8 > 100 µM | ACHN > 100 µM | 786-0 > 100 µM | Hs-578T > 100 µM | CAKI-1 38.8 µM | LOX IMVI > 100 µM | UACC-257 > 100 µM | A549 > 100 µM | SF-539 > 100 µM | M14 > 100 µM | SNB-19 > 100 µM | COLO 205 > 100 µM | SN12C > 100 µM

Cc1ccc(C2(N3CCOCC3)OC(C)(C)c3cccc4cccc2c34)cc1 (stereo unspecified)
inactive: HL-60 34.9 µM | NCI/ADR-RES 15.7 µM | DU-145 18 µM | OVCAR-8 16.9 µM | ACHN 16.3 µM | 786-0 17.3 µM | NCI-H460 14.5 µM | Hs-578T 20.9 µM | CAKI-1 18.2 µM | MCF7 16 µM | LOX IMVI 16.5 µM | UACC-257 18 µM | A549 12.9 µM | SF-539 17.9 µM | M14 16.8 µM | SNB-19 17.6 µM | COLO 205 15.9 µM | SN12C 16.9 µM

Sc1nnc(CCCCCCCCc2nnc(S)o2)o1
inactive: HL-60 > 100 µM | NCI/ADR-RES > 100 µM | SK-MEL-28 > 100 µM | DU-145 > 100 µM | OVCAR-8 > 100 µM | ACHN > 100 µM | 786-0 > 100 µM | NCI-H460 > 100 µM | CAKI-1 > 100 µM | MCF7 > 100 µM | MDA-MB-231 > 100 µM | LOX IMVI > 100 µM | UACC-257 > 100 µM | A549 > 100 µM | SF-539 > 100 µM | M14 > 100 µM | SNB-19 > 100 µM | COLO 205 > 100 µM | SN12C > 100 µM

O=C(O)CCNC(=O)c1cc(N(CCBr)CCBr)c([N+](=O)[O-])cc1[N+](=O)[O-]
inactive: HL-60 > 100 µM | NCI/ADR-RES > 100 µM | SK-MEL-28 > 100 µM | OVCAR-8 > 100 µM | ACHN > 100 µM | 786-0 > 100 µM | NCI-H460 > 100 µM | Hs-578T > 100 µM | CAKI-1 > 100 µM | MCF7 > 100 µM | MDA-MB-231 > 100 µM | LOX IMVI > 100 µM | UACC-257 > 100 µM | A549 > 100 µM | M14 > 100 µM | SNB-19 > 100 µM | COLO 205 > 100 µM | SN12C > 100 µM

COc1cc(/C=C2\CCC(C)C3C2=NN(C(C)=O)C3c2cc(OC)c(OC)c(OC)c2)cc(OC)c1OC (stereo unspecified)
inactive: HL-60 > 91.6 µM | SK-MEL-28 6.93 µM | DU-145 > 100 µM | OVCAR-8 > 100 µM | ACHN 25.1 µM | 786-0 > 79.6 µM | NCI-H460 > 100 µM | Hs-578T 45.8 µM | CAKI-1 14.2 µM | MCF7 > 77.6 µM | MDA-MB-231 > 72.9 µM | LOX IMVI > 100 µM | UACC-257 > 59.8 µM | A549 > 100 µM | SF-539 > 100 µM | M14 > 100 µM | SNB-19 > 100 µM | COLO 205 > 100 µM | SN12C > 100 µM

COC(=N)C12C(N)=NC(OC)(OC)C1(C#N)C21C(=O)N(c2ccccc2)N=C1C (stereo unspecified)
inactive: HL-60 > 100 µM | NCI/ADR-RES > 100 µM | SK-MEL-28 > 100 µM | DU-145 > 100 µM | OVCAR-8 > 100 µM | ACHN > 100 µM | 786-0 > 100 µM | NCI-H460 > 100 µM | CAKI-1 > 100 µM | MCF7 > 100 µM | MDA-MB-231 > 100 µM | UACC-257 > 100 µM | A549 > 100 µM | SF-539 > 100 µM | M14 > 100 µM | SNB-19 > 100 µM | COLO 205 > 100 µM | SN12C > 100 µM

c1ccc2sc(SCCSc3nc4ccccc4s3)nc2c1
inactive: HL-60 65.8 µM | NCI/ADR-RES > 100 µM | SK-MEL-28 > 100 µM | DU-145 > 100 µM | OVCAR-8 > 100 µM | ACHN > 100 µM | 786-0 > 100 µM | NCI-H460 > 100 µM | Hs-578T > 100 µM | CAKI-1 > 100 µM | MCF7 > 100 µM | MDA-MB-231 > 100 µM | LOX IMVI > 100 µM | UACC-257 > 100 µM | A549 > 100 µM | M14 > 100 µM | SNB-19 > 100 µM | SN12C > 100 µM

O=C(Nc1ccc(Cl)c(Cl)c1)C(=O)C(C1OC(=O)c2ccccc21)[N+](=O)[O-] (stereo unspecified)
inactive: NCI/ADR-RES > 100 µM | SK-MEL-28 > 100 µM | DU-145 > 100 µM | OVCAR-8 > 100 µM | ACHN > 100 µM | 786-0 > 100 µM | NCI-H460 > 100 µM | Hs-578T > 100 µM | CAKI-1 > 100 µM | MCF7 > 100 µM | MDA-MB-231 > 100 µM | LOX IMVI > 100 µM | UACC-257 > 100 µM | A549 > 100 µM | SF-539 > 100 µM | M14 > 100 µM | SNB-19 > 100 µM | COLO 205 > 100 µM | SN12C > 100 µM

CSc1nc(C#N)c(N)n1C
inactive: HL-60 > 100 µM | NCI/ADR-RES > 100 µM | SK-MEL-28 > 100 µM | DU-145 64.1 µM | OVCAR-8 > 100 µM | ACHN > 100 µM | 786-0 > 100 µM | NCI-H460 > 100 µM | Hs-578T > 100 µM | CAKI-1 > 100 µM | MDA-MB-231 > 100 µM | LOX IMVI > 100 µM | UACC-257 > 100 µM | A549 > 100 µM | SF-539 > 100 µM | M14 > 100 µM | SNB-19 > 100 µM | COLO 205 > 100 µM | SN12C > 100 µM
